Biological target: T1, C5AR1 (Homo sapiens, UniProt P21730)
T1 construct: host or cells: CHO-K1
T1 sequence (P21730 1-350): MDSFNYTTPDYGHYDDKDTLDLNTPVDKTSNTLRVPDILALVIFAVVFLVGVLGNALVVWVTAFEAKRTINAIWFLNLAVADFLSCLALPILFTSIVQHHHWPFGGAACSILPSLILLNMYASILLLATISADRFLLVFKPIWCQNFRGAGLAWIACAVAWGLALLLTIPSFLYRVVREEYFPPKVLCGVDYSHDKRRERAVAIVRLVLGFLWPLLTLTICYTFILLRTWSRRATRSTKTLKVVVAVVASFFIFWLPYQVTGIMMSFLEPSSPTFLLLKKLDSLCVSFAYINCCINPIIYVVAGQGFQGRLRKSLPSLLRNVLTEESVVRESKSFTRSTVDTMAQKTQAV
Test: hC5a DISCO IC50 assay (PathHunter beta-arrestin, antagonist mode)
Format: cell-based
Conditions: CHO-K1 C5AR1 beta-arrestin cell line; antagonist vs 1-10 nM C5a agonist; geometric mean values; read-out: C5aR IC50
Protocol: II. Biological Assays In Vitro Assay hC5a DISCO IC50 Assay
5 μl Antagonist at 6-fold end concentration or DMSO control is added to assay medium and subsequently 5 μl 1-10 nM C5a agonist at 6 fold end concentration. Cells are centrifuged for 1 min at 1000 rpm and incubated for 1.5 hour in at 37° C. Plates are equilibrated at room temperature for several minutes before adding 12 μl/well Detection Reagent (PathHunter Detection Kit, DiscoverX, Cat #93-0001). Plates are centrifuged for 1 min at 1000 rpm and incubated for 45 minutes at RT before being measured on a Fluostar Optima, BMG Labtech. IC50 values are calculated from a serial dilution range of antagonist using inhouse software and given in nmol/l.
The calculated IC50 values may fluctuate depending on the daily cellular assay performance. Fluctuations of this kind are known to those skilled in the art. Average IC50 values from several measurements are given as geometric mean values.

Structure (SMILES) | IC50
COc1ccnc2c1n(Cc1ccccc1C(F)(F)F)c(=O)n2[C@@H]1CCN(c2c(C)cccc2C)C1 [Example 45, 3-[(R)-1-(2,6-Dimethyl-phenyl)-pyrrolidin-3-yl]-7-methoxy-1-(2-trifluoromethyl-benzyl)-1,3-dihydro-imidazo[4,5-b]pyridin-2-one] | 0.016 µM
COc1ccnc2c1n(Cc1ccccc1C(F)(F)F)c(=O)n2[C@@H]1CCN(c2c(F)cccc2F)C1 [Example 46, 3-[(R)-1-(2,6-Difluoro-phenyl)-pyrrolidin-3-yl]-7-methoxy-1-(2-trifluoromethyl-benzyl)-1,3-dihydro-imidazo[4,5-b]pyridin-2-one] | 0.039 µM
COc1nccc(C)c1N1CC[C@@H](n2c(=O)n(Cc3ccccc3C(F)(F)F)c3c(OC)nccc32)C1 [Example 47, 4-Methoxy-1-[(R)-1-(2-methoxy-4-methyl-pyridin-3-yl)-pyrrolidin-3-yl]-3-(2-trifluoromethyl-benzyl)-1,3-dihydro-imidazo[4,5-c]pyridin-2-one] | 0.095 µM
COc1nccc2c1n(Cc1ccccc1C(F)(F)F)c(=O)n2[C@@H]1CCN(c2c(C)ccnc2F)C1 [Example 48, 1-[(R)-1-(2-Fluoro-4-methyl-pyridin-3-yl)-pyrrolidin-3-yl]-4-methoxy-3-(2-trifluoromethyl-benzyl)-1,3-dihydro-imidazo[4,5-c]pyridin-2-one] | 0.165 µM
COc1cccc(F)c1N1CC[C@@H](n2c(=O)n(Cc3ccccc3C(F)(F)F)c3c(OC)nccc32)C1 [Example 49, 1-[(R)-1-(2-Fluoro-6-methoxy-phenyl)-pyrrolidin-3-yl]-4-methoxy-3-(2-trifluoromethyl-benzyl)-1,3-dihydro-imidazo[4,5-c]pyridin-2-one] | 0.132 µM
COc1nccc2c1n(Cc1ccccc1C(F)(F)F)c(=O)n2[C@@H]1CCN(c2c(C)cccc2F)C1 [Example 50, 1-[(R)-1-(2-Fluoro-6-methyl-phenyl)-pyrrolidin-3-yl]-4-methoxy-3-(2-trifluoromethyl-benzyl)-1,3-dihydro-imidazo[4,5-c]pyridin-2-one] | 0.042 µM
COc1cccc(C)c1N1CC[C@@H](n2c(=O)n(Cc3ccccc3C(F)(F)F)c3c(OC)nccc32)C1 [Example 51, 4-Methoxy-1-[(R)-1-(2-methoxy-6-methyl-phenyl)-pyrrolidin-3-yl]-3-(2-trifluoromethyl-benzyl)-1,3-dihydro-imidazo[4,5-c]pyridin-2-one] | 0.062 µM
Cc1cccc(C)c1N1CC[C@@H](n2c(=O)n(Cc3ccccc3C(F)(F)F)c3c(OCCO)cccc32)C1 [Example 52, 1-[(R)-1-(2,6-Dimethyl-phenyl)-pyrrolidin-3-yl]-4-(2-hydroxy-ethoxy)-3-(2-trifluoromethyl-benzyl)-1,3-dihydro-benzoimidazol-2-one] | 0.03 µM
COc1cccc2c1n(Cc1cnccc1C(F)(F)F)c(=O)n2C1CCN(C(=O)OC(C)(C)C)CC1 [Example 53, 4-[4-Methoxy-2-oxo-3-(4-trifluoromethyl-pyridin-3-ylmethyl)-2,3-dihydro-benzoimidazol-1-yl]-piperidine-1-carboxylic acid tert-butyl ester] | 1.84 µM
COc1cccc2c1n(Cc1cccnc1C(F)(F)F)c(=O)n2C1CCN(c2c(C)cccc2C)CC1 [Example 54, 1-[1-(2,6-Dimethyl-phenyl)-piperidin-4-yl]-4-methoxy-3-(2-trifluoromethyl-pyridin-3-ylmethyl)-1,3-dihydro-benzoimidazol-2-one] | 0.043 µM
COc1cccc2c1n(Cc1cccnc1C(F)(F)F)c(=O)n2C1CCN(c2c(F)cccc2F)CC1 [Example 55, 1-[1-(2,6-Difluoro-phenyl)-piperidin-4-yl]-4-methoxy-3-(2-trifluoromethyl-pyridin-3-ylmethyl)-1,3-dihydro-benzoimidazol-2-one] | 0.178 µM
COc1cccc(F)c1N1CC[C@@H](n2c(=O)n(Cc3ccccc3C(F)(F)F)c3c(=O)[nH]ccc32)C1 [Example 56, 1-[(R)-1-(2-Fluoro-6-methoxy-phenyl)-pyrrolidin-3-yl]-3-(2-trifluoromethyl-benzyl)-3,5-dihydro-1H-imidazo[4,5-c]pyridine-2,4-dione] | 0.717 µM
Cc1cccc(F)c1N1CC[C@@H](n2c(=O)n(Cc3ccccc3C(F)(F)F)c3c(=O)[nH]ccc32)C1 [Example 57, 1-[(R)-1-(2-Fluoro-6-methyl-phenyl)-pyrrolidin-3-yl]-3-(2-trifluoromethyl-benzyl)-3,5-dihydro-1H-imidazo[4,5-c]pyridine-2,4-dione] | 0.089 µM
COc1cccc2c1n(Cc1cnccc1C(F)(F)F)c(=O)n2C1CCN(c2c(C)cccc2C)CC1 [Example 58, 1-[1-(2,6-Dimethyl-phenyl)-piperidin-4-yl]-4-methoxy-3-(4-trifluoromethyl-pyridin-3-ylmethyl)-1,3-dihydro-benzoimidazol-2-one] | 0.025 µM
COc1cccc2c1n(Cc1cnccc1C(F)(F)F)c(=O)n2C1CCN(c2c(F)cccc2F)CC1 [Example 59, 1-[1-(2,6-Difluoro-phenyl)-piperidin-4-yl]-4-methoxy-3-(4-trifluoromethyl-pyridin-3-ylmethyl)-1,3-dihydro-benzoimidazol-2-one] | 0.049 µM
CCOC(=O)N1CC[C@@H](n2c(=O)n(Cc3ccccc3C(F)(F)F)c3c(OC)cccc32)C1 [Example 60, (R)-3-[4-Methoxy-2-oxo-3-(2-trifluoromethyl-benzyl)-2,3-dihydro-benzoimidazol-1-yl]-pyrrolidine-1-carboxylic acid ethyl ester] | 0.084 µM
COc1cccc2c1n(Cc1ccccc1C(F)(F)F)c(=O)n2[C@@H]1CCN(C(=O)OC(C)C)C1 [Example 61, (R)-3-[4-Methoxy-2-oxo-3-(2-trifluoromethyl-benzyl)-2,3-dihydro-benzoimidazol-1-yl]-pyrrolidine-1-carboxylic acid isopropyl ester] | 0.065 µM
CCCCOC(=O)N1CC[C@@H](n2c(=O)n(Cc3ccccc3C(F)(F)F)c3c(OC)cccc32)C1 [Example 62, (R)-3-[4-Methoxy-2-oxo-3-(2-trifluoromethyl-benzyl)-2,3-dihydro-benzoimidazol-1-yl]-pyrrolidine-1-carboxylic acid butyl ester] | 0.099 µM
COc1cccc2c1n(Cc1ccccc1C(F)(F)F)c(=O)n2[C@@H]1CCN(C(=O)Oc2ccccc2)C1 [Example 63, (R)-3-[4-Methoxy-2-oxo-3-(2-trifluoromethyl-benzyl)-2,3-dihydro-benzoimidazol-1-yl]-pyrrolidine-1-carboxylic acid phenyl ester] | 0.729 µM
COc1cccc2c1n(Cc1ncccc1C(F)(F)F)c(=O)n2C1CCN(C(=O)OC(C)(C)C)CC1 [Example 64, 4-[4-Methoxy-2-oxo-3-(3-trifluoromethyl-pyridin-2-ylmethyl)-2,3-dihydro-benzoimidazol-1-yl]-piperidine-1-carboxylic acid tert-butyl ester] | 2.92 µM
COc1ccccc1Cn1c(=O)n([C@@H]2CCN(C(=O)OC(C)(C)C)C2)c2cccc(OC)c21 [Example 65, (R)-3-[4-Methoxy-3-(2-methoxy-benzyl)-2-oxo-2,3-dihydro-benzoimidazol-1-yl]-pyrrolidine-1-carboxylic acid tert-butyl ester] | 0.396 µM
COc1cccc2c1n(Cc1ccccc1C(F)(F)F)c(=O)n2[C@@H]1CCN(c2c(C)ccnc2C)C1 [Example 66, 1-[(R)-1-(2,4-Dimethyl-pyridin-3-yl)-pyrrolidin-3-yl]-4-methoxy-3-(2-trifluoromethyl-benzyl)-1,3-dihydro-benzoimidazol-2-one] | 0.06 µM
COc1ccccc1Cn1c(=O)n([C@@H]2CCN(c3c(C)cccc3C)C2)c2cccc(OC)c21 [Example 67, 1-[(R)-1-(2,6-Dimethyl-phenyl)-pyrrolidin-3-yl]-4-methoxy-3-(2-methoxy-benzyl)-1,3-dihydro-benzoimidazol-2-one] | 0.036 µM
COc1ccccc1Cn1c(=O)n([C@@H]2CCN(c3c(F)cccc3F)C2)c2cccc(OC)c21 [Example 68, 1-[(R)-1-(2,6-Difluoro-phenyl)-pyrrolidin-3-yl]-4-methoxy-3-(2-methoxy-benzyl)-1,3-dihydro-benzoimidazol-2-one] | 0.084 µM
COc1cccc2c1n(Cc1ccccc1C(F)(F)F)c(=O)n2[C@@H]1CCN(c2nnc(C(C)C)o2)C1 [Example 69, 1-[(R)-1-(5-Isopropyl-[1,3,4]oxadiazol-2-yl)-pyrrolidin-3-yl]-4-methoxy-3-(2-trifluoromethyl-benzyl)-1,3-dihydro-benzoimidazol-2-one] | 2.82 µM
COc1cccc2c1n(Cc1ccccc1C(F)(F)F)c(=O)n2[C@@H]1CCN(C(=O)OC2(C)COC2)C1 [Example 70, (R)-3-[4-Methoxy-2-oxo-3-(2-trifluoromethyl-benzyl)-2,3-dihydro-benzoimidazol-1-yl]-pyrrolidine-1-carboxylic acid 3-methyl-oxetan-3-yl ester] | 0.538 µM

Source: patent US11739070B2, “C5A receptor modulators” (IDORSIA PHARMACEUTICALS LTD, priority 2018, dated 2023)
